Experiments:
[1] = tested on: navel orange tree (variety Cara Cara); assay: Field spray of navel orange trees in situ, fruit color development (example 3); assay type: in vivo; details: Navels on trees, pH about 5-6, assessed approximately 30 days later, chart of FIG. 1
Excerpt: Five different treatments (T1-T5 below) were made. There were four replications for each of the five treatments, with each replicate comprising one navel orange tree (variety Cara Cara) in situ. Thus, each treatment was applied to 4 different trees. Treatments were all made using a motorized high volume agricultural sprayer and an application volume equivalent to 5000 L/ha (liters/hectare), or approximately 530 gallons/acre. This is approximately equivalent to 12.5 L (3.3 gal)/tree. The trees were sprayed during early color break (late October/early November) with a wetting agent added at 0.01% (v/v).
Treatments were as follows: • T1. Untreated trees=control. • T2. Water solution containing gibberellic acid at 16 ppm. • T3. Water solution containing potassium phosphite (expressed as equivalent amount of phosphorous acid) sprayed at 600 ppm. • T4. A tank water mixture of potassium phosphite (expressed as equivalent amount of phosphorous acid) sprayed at 300 ppm plus gibberellic acid at 16 ppm • T5. […]
The spray tank pH for all the treatments T2-T5 were adjusted with citric acid to a pH of between about 5 and about 6 (in accordance with the manufacturers instructions for gibberellic acid usage), and a small amount of a non ionic wetter added to the tank (0.01% v/v). […] The fruit on the trees were assessed for color development approximately 30 days later, during December. […]

oranges (Navels) = assay: Fruit dipping of oranges at color break, peel color development (example 2); assay type: in vivo, navel oranges; details: 2 min immersion at 50° F., incubated at 15° C., chart of FIG. 1 (1-8), initial color 5.5
Excerpt: (§1) The invention is further illustrated by the following non-limiting examples. It is to be appreciated that, although each of the exemplary experiments used potassium phosphite, that other salts of phosphorous acid, including without limitation, ammonium, sodium, and/or calcium salts, as well as phosphorous acid itself may also have been used. For examples 1 and 2 below, assessment of citrus fruit peel color was made using the following color grading charts (FIG. 1 for Navels; FIG. 2 for Lemons) in addition to the Dictionary of Color by Maerz and Paul, First Edition (1930). All experiments were conducted in solutions at approximately pH 6, although pH ranges from between about 3 and about 9 are acceptable.
Five different treatments (A-E below) were made. There were four replications for each of the five treatments, with each replicate comprising six fruit pieces. Thus, each treatment was applied to 24 fruit pieces. The fruit treated in this example were oranges at the color break stage, the fruit being predominantly green with some development of orange color (initial color 5.5). […]
(§2) After the treatments were applied and left to dry for 10 minutes, all treatments were recorded for peel color using FIG. 1 above and the Dictionary of Color, and rated for color development and photographed. The fruit was placed in humid incubators at 15° C. and monitored weekly for color development. […]

green lemons = assay: Fruit dipping of green lemons, peel color development (example 1); assay type: in vivo; details: 2 min immersion at 50° F., incubated at 15° C., chart of FIG. 2 (1-8), initial color approx 5.5
Excerpt: as §1
Five different treatments (A-E below) were made. There were four replications for each of the five treatments, with each replicate comprising six fruit pieces. Thus, each treatment was applied to 24 fruit pieces. […]
as §2, with “FIG. 2” for “FIG. 1”

firm green tomatoes = assay: Fruit dipping of firm green tomatoes, peel color development (example 4); assay type: in vivo; details: 2 min immersion at 75° F., incubated at 30° C., USDA chart of FIG. 5, initial 3.5
Excerpt: For example 4 below, assessment of the tomato peel color was made using the USDA color grading chart (FIG. 5) in addition to the Dictionary of Color.
The color grading chart (FIG. 5) is a reproduction of the “Tomato Color Standards USDA Visual Aid TM-L-1” which consists of a chart containing twelve color photographs illustrating certain color classification requirements. The official USDA chart is incorporated herein by this reference. Table 6 below sets forth approximate cross-references to the Dictionary of Color for the 12 colors of the USDA chart:
In example 4, five different treatments (A-E below) were made. There were four replications for each of the five treatments, with each replicate comprising six fruit pieces. Thus, each treatment was applied to 24 fruit pieces. The fruit treated in this example were firm green tomatoes according to the chart above was 3.5 (initial color 11-C-22) at the onset of color break. Immersion temperatures were approximately 75° F. (24° C.). […]
After the treatments were applied and left to dry for 10 minutes, all treatments were recorded for peel color using the Dictionary of Color and also the USDA Tomato Color Standards Chart (FIG. 5 herein), and rated for color development and photographed. […] (86° F.) and monitored weekly for color development. […]

[2] = gibberellic acid 100 ppm in water

**Q.** Which “Mean Color Rating” value ([1]; gibberellic acid 16 ppm sprayed at 5000 L/ha) does the source give for `C=C1C[C@]23C[C@@]1(O)CC[C@H]2[C@@]12C=C[C@H](O)[C@@](C)(C(=O)O1)[C@H]2[C@@H]3C(=O)O` [Gibberellic acid (GA), gibberellic acid] here?
**A.** 3.2 b

**Q.** And the “Mean Color Rating” value (oranges (Navels); [2])?
**A.** 3.2 b

**Q.** And the “Mean Color Rating” value (green lemons; [2])?
**A.** 3 b

**Q.** What about the “Mean Color Rating” value (firm green tomatoes; gibberellic acid 100 ppm) of the same compound?
**A.** 4.6 b

**Q.** For potassium phosphite, which “Mean Color Rating” value ([1]; potassium phosphite 600 ppm (as phosphorous acid) sprayed at 5000 L/ha) is on record?
**A.** 3.5 bc

**Q.** And the “Mean Color Rating” value (oranges (Navels); 2% (w/w) potassium phosphite)?
**A.** 3.5 bc

**Q.** What about the “Mean Color Rating” value (green lemons; 2% (w/w) potassium phosphite) of the same compound?
**A.** 3.6 c

**Q.** What about the “Mean Color Rating” value (firm green tomatoes; 2% (w/w) potassium phosphite) of the same compound?
**A.** 4.8 b

Reference: US9526250B2, “Methods for delaying maturity of crops” (Plant Protectants, LLC, priority 2009, dated 2016)
